Results reported in ChEMBL document CHEMBL1201862, “PubChem BioAssay data set” (2004).
The source made the active and inactive calls.

What was measured:
[1] = luciferase reporter signal suppression in cells – H4 neuroglioma cells, luminescence, dose response (AID 1990); format: functional, cell-based
[2] = molecular target: T1, Heat shock factor protein 1 (Mus musculus, UniProt P38532); assay: decrease of HSF1-responsive luciferase luminescence – cell-based, NIH3T3, dose retest, confirmation (AID 2382); format: functional;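 note: NIH3T3 fibroblasts with HSF1-driven luciferase reporter stressed by proteasome inhibitor MG132; luminescence from HSF1-driven luciferase expression after 8 hours of MG132 stress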
T1 sequence (P38532 whole entry): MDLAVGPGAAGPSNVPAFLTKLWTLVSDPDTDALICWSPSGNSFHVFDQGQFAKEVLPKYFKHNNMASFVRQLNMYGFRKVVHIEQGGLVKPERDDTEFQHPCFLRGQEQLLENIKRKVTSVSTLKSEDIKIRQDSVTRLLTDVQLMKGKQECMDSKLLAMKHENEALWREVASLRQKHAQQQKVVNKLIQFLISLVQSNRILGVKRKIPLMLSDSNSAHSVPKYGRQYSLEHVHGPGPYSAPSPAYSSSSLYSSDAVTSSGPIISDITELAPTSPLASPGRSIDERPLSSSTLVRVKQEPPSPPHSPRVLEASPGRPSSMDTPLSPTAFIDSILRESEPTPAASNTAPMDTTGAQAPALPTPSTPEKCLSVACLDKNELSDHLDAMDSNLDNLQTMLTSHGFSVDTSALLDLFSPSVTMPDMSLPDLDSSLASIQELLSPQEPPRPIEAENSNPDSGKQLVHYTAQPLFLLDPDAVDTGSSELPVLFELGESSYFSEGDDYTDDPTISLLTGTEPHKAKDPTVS

[3] = molecular target: T2, Tyrosyl-DNA phosphodiesterase 2 (Homo sapiens, UniProt O95551); assay: potency against TDP2 phosphodiesterase activity – biochemical, epi absorbance, IC50, dose response (AID 743297)
T2 sequence (O95551 whole entry): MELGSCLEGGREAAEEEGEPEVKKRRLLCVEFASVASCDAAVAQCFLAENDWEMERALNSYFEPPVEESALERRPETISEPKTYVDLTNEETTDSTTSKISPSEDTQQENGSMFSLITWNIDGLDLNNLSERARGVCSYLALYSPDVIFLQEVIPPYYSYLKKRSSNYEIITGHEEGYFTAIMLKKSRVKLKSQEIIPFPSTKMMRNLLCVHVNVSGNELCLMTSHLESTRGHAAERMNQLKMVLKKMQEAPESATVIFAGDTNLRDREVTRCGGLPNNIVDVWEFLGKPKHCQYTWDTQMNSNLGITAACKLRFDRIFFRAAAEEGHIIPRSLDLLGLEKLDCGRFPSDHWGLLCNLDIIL

[4] = molecular target: T1, Heat shock factor protein 1; assay: enhancement of HSF1-driven luciferase signal – cell-based, NIH3T3, luminescence, dose retest, confirmation (AID 435004); format: functional;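 note: stress induced by proteasome inhibitor MG132 added 30 min after compound; luciferase reporter driven by HSF1 response element in NIH3T3 cells; actives raise luminescence as potentiators of the MG132 stress response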
HEK293 [5] = assay: membrane integrity loss in HEK cells – cell-based, fluorescence, cytotoxicity control for IDE activator project, dose response (AID 588440); format: functional; conditions: Homo sapiens;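 note: cytotoxicity by LDH release measuring loss of membrane integrity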
HeLa = assay: ATP-based viability loss in HeLa cells – cell-based, CellTiter-Glo luminescence, cherry-pick samples, cytotoxicity control for MITF activator project, dose response (AID 540259); format: functional; conditions: Homo sapiens
[6] = molecular target: T3, Mitochondrial peptide methionine sulfoxide reductase (Bos taurus, UniProt P54149); assay: Absorbance-based biochemical high throughput dose response assay for activators of Methionine sulfoxide reductase A (MsrA).; format: functional
T3 sequence (P54149 whole entry): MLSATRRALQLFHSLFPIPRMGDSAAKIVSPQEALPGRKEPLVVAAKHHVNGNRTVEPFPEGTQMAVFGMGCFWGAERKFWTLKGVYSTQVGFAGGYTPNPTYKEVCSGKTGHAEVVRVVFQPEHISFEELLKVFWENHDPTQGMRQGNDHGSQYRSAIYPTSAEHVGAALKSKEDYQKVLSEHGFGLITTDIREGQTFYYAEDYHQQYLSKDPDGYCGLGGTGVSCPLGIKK

BJ [7] = assay: cells; format: functional, cell-based; conditions: Homo sapiens
cells = format: functional, cell-based
BJ [8] = assay: BJ-TERT-LT-ST fibroblast viability loss – cell-based, RAS-independent, luminescence, dose response (AID 1935); format: functional; conditions: Homo sapiens;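 note: BJ fibroblasts immortalized with TERT plus LT and ST oncogenes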
HEK293 [9] = assay: SAR Analysis of small molecule inhibitors of T-cell specific antigen receptor-induced NF-kB activation in a HEK-293T cell line using a luminescence assay - Set 2. [Related pubchem assays (depositor defined):AID435003, AID435012, AID489026]; format: functional, cell-based; conditions: Homo sapiens
Streptokinase A = molecular target: T4, Streptokinase A (Streptococcus pyogenes serotype M1, UniProt P10520); assay: viability-normalized secreted streptokinase activity reduction – plasminogen activation absorbance, OD405, dose response (AID 1914); format: functional, Streptococcus pyogenes M1 GAS;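 note: secreted streptokinase activity via plasminogen activation per viability signal from cell pellet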
T4 sequence (P10520 whole entry): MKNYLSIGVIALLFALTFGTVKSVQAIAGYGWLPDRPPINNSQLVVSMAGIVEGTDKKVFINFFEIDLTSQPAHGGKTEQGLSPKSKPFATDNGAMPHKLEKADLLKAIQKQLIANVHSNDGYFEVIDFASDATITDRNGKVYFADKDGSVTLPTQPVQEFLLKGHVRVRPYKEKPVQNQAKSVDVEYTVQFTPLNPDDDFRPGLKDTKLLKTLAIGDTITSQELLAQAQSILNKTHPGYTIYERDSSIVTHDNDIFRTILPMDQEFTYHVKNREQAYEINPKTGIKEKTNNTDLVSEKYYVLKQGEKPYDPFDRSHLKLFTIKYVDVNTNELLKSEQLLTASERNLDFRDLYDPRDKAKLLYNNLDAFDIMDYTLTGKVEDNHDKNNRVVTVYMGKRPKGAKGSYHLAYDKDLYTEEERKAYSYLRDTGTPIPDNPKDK

[10] = molecular target: T5, Type-1 angiotensin II receptor (Homo sapiens, UniProt P30556); assay: antagonism of angiotensin II type 1 receptor – cell-based, uHTS hits, selectivity assay for APJ receptor antagonist project, dose response (AID 463214); format: functional;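 note: antagonist potency against angiotensin II stimulated AT1 response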
T5 sequence (P30556 whole entry): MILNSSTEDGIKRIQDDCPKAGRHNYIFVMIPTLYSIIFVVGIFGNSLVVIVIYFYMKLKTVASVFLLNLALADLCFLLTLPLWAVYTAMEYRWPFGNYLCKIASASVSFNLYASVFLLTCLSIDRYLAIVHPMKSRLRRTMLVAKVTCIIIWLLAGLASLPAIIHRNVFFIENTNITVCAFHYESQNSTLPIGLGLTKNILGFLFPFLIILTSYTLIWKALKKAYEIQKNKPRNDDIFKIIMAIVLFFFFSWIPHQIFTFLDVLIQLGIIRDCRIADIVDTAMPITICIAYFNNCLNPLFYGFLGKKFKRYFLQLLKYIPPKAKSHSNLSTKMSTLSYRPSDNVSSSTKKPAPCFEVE

Vero = assay: viability of Vero cells under compound – cytotoxicity control for flavivirus capping enzyme inhibitors (AID 588742); format: functional; conditions: Chlorocebus sabaeus
Beta Lactamase = Beta Lactamase (Pseudomonas aeruginosa, UniProt Q932Y6); assay: BLA reporter interference, concentration series – BLA reporter cells, FRET fluorescence, artefact control for TLR9-MyD88 binding inhibitor project, dose response (AID 588341); format: cell-based;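 note: cell based assay in CHO-K1 cells stably expressing beta-lactamase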
Genome polyprotein = Genome polyprotein (dengue virus type 2, UniProt P29990); assay: flavivirus cap methylation enzyme inhibition – biochemical, confirmation dose response, primary screen (AID 588689); format: functional
Cytochrome P450 2C9 = Cytochrome P450 2C9 (Homo sapiens, UniProt P11712)
Chain of Cytochrome P450 2C9 (P11712 whole entry): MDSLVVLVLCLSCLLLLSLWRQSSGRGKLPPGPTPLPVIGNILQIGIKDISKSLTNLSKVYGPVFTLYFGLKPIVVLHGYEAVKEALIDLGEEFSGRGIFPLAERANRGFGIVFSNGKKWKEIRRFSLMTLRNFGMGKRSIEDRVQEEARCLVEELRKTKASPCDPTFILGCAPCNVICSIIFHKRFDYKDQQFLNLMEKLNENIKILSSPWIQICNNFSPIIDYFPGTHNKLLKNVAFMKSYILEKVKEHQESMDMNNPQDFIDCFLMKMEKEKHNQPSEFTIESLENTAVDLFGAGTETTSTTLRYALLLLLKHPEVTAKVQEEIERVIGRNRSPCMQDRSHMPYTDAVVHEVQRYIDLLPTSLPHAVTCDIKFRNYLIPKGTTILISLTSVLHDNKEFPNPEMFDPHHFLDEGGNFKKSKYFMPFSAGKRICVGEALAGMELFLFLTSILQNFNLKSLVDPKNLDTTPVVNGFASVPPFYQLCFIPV

Chain of Genome polyprotein (P29990 2492-3391 limits assumed): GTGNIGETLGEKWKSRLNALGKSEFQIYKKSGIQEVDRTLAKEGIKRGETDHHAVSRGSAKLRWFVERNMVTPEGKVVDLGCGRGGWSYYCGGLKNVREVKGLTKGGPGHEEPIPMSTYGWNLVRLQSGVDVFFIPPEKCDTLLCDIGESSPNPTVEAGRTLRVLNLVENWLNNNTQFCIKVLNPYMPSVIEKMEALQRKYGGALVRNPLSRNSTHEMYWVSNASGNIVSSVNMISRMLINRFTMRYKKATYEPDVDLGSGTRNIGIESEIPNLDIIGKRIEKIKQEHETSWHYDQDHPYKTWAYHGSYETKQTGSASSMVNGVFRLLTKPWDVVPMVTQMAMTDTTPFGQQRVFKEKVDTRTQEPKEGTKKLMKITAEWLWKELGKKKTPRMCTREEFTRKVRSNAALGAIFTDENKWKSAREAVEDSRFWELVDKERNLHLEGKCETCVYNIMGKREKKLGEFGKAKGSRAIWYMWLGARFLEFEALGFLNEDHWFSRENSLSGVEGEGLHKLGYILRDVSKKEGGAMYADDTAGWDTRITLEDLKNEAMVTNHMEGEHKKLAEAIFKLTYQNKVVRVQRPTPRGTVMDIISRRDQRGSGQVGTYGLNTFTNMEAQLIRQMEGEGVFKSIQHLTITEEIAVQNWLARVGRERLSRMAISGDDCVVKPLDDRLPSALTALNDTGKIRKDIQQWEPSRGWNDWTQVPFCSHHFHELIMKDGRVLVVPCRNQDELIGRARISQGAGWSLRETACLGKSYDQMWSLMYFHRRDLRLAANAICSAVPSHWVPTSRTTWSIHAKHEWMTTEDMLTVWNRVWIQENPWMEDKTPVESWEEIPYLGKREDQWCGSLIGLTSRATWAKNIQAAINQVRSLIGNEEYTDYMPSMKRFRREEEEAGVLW
Chain of Beta Lactamase (Q932Y6 whole entry): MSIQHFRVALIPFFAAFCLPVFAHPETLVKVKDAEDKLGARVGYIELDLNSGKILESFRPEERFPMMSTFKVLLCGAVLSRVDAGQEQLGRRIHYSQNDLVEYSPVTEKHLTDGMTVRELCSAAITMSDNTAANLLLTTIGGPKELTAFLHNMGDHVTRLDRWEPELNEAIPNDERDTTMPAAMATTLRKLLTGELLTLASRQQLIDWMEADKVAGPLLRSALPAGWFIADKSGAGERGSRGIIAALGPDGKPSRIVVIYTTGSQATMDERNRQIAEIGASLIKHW

Question: For `CCOC(=O)c1c(C)[nH]c2c1-c1ccccc1C(=O)C2=O`, which EC50 [1] is on record?
Answer: 3.02 µM (active)

Question: What about the EC50 [2] of the same compound?
Answer: 1.57 µM (active)

Question: What about the IC50 [3] of the same compound?
Answer: 915 nM (active)

Question: Which EC50 [4] does the source give for `CCOC(=O)C1=C(c2ccccc2)N=C(N)NC1c1ccc(OCc2ccc(Cl)cc2)c(OC)c1` (configuration not stated) here?
Answer: 25 µM (active)

Question: What about the IC50 (HEK293 [5]) of the same compound?
Answer: 13 µM (inactive)

Question: Which AC50 (HeLa) does the source give for `COc1ccc2c(c1)CCC(/C=N/c1ccc3c(c1)OCO3)=C2O` here?
Answer: 48.4 µM (active)

Question: With `O=C(c1ccccc1)c1coc2c1C(=O)c1ccccc1C2=O` as the compound, how does the EC50 [6] read?
Answer: 37.7 µM (inactive)

Question: With `CC(=O)NC(c1ccc2ccccc2c1)c1ccc2cccnc2c1O` (configuration not stated) as the compound, how does the EC50 (BJ [7]) read?
Answer: 6.35 µM (active)

Question: What about the EC50 (cells) of the same compound?
Answer: > 350 µM (not active)

Question: What about the EC50 (BJ [8]) of the same compound?
Answer: 6.07 µM (inconclusive)

Question: What about the IC50 (HEK293 [9]) of the same compound?
Answer: 1.88 µM (active)

Question: Which EC50 (Streptokinase A) does the source give for `O=[N+]([O-])c1c(NCCO)cc(Sc2nc3ccccc3s2)c2nonc12` here?
Answer: > 150 µM (not active)

Question: And the IC50 [10]?
Answer: 1.9 µM (active)

Question: What about the CC50 (Vero) of the same compound?
Answer: 32.9 µM (active)

Question: What about the IC50 (Beta Lactamase) of the same compound?
Answer: 9.17 µM (active)

Question: What about the IC50 (Genome polyprotein) of the same compound?
Answer: 75.8 µM (active)

Question: And the AC50 (Cytochrome P450 2C9)?
Answer: 631 nM (inconclusive)
